Laboratory results taken from PMC7997382 (2020).

Columns and labels:
Test in all cases: ESI-MS, negative mode
[1] = test system: 20 mer double strand DNA (dsDNA) (DNA, duplex) GTCCATGCCCCAGGCCCACC/GGTGGGCCTGGGGCATGGAC; details: ammonium acetate 15 mM, 10-fold molar excess of compound, room temperature, 24 h, diluted 1:10, pH 6.8
[2] = test system: ssDNA1 (DNA, single strand) GTCCATGCCCCAGGCCCACC; details: ammonium acetate 15 mM, 10-fold molar excess over dsDNA, 24 h, ssDNA in equilibrium with dsDNA
[3] = test system: ssDNA2 (DNA, single strand) GGTGGGCCTGGGGCATGGAC; details: ammonium acetate 15 mM, 10-fold molar excess over dsDNA, 24 h, ssDNA in equilibrium with dsDNA

Structure (SMILES) | binding [1] | binding ([2]; no adduct peak) | binding ([3]; no adduct peak) | binding ([2]; partial binding) | binding ([3]; partial binding) | binding ([1]; covalent, each cisplatin lost both chloride ligands)
C=C.CC(=O)OC[C@H]1O[C@@H](N2[C]N(C)C=C2)[C@H](OC(C)=O)[C@@H](OC(C)=O)[C@@H]1OC(C)=O.Cc1ccc2ccc3ccc(C)nc3c2n1.[CH3-].[Pt+2] | yes | no | no | – | – | –
CC(=O)OC[C@H]1O[C@@H](N2[C]N(C)C=C2)[C@H](OC(C)=O)[C@@H](OC(C)=O)[C@@H]1OC(C)=O.[CH3-].[CH3-].[CH3-].[Pt+4].c1cnc2c(c1)ccc1cccnc12 | yes | – | – | weak | weak | –
N.N.[Cl-].[Cl-].[Pt+2] | – | – | – | – | – | yes
